Assay results published in patent US11878965B2, “Inhibitors of peptidylarginine deiminases” (Gilead Sciences, Inc., priority 2020, dated 2024).

molecular target: human PAD4 (Homo sapiens (Human), UniProt Q9UM07); experiment: In Vitro PAD4 BAEE Biochemical Assay; details: human PAD4, BAEE substrate; 5 nM PAD4, 2 mM calcium chloride, 3 mM BAEE; geometric mean of multiple experiments
Procedure, shortened: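 Deimination of BAEE substrate (3 mM) measured as ammonia via o-phthalaldehyde–DTT isoindole fluorescence, 405/535 nm. Tag-free bacterially expressed human PAD4 at 5 nM with 2 mM calcium chloride, pH 7.6 MOPS buffer, 30 min compound preincubation then 2 h reaction, both at 25 °C.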

Sequence of human PAD4 (Q9UM07 2-663): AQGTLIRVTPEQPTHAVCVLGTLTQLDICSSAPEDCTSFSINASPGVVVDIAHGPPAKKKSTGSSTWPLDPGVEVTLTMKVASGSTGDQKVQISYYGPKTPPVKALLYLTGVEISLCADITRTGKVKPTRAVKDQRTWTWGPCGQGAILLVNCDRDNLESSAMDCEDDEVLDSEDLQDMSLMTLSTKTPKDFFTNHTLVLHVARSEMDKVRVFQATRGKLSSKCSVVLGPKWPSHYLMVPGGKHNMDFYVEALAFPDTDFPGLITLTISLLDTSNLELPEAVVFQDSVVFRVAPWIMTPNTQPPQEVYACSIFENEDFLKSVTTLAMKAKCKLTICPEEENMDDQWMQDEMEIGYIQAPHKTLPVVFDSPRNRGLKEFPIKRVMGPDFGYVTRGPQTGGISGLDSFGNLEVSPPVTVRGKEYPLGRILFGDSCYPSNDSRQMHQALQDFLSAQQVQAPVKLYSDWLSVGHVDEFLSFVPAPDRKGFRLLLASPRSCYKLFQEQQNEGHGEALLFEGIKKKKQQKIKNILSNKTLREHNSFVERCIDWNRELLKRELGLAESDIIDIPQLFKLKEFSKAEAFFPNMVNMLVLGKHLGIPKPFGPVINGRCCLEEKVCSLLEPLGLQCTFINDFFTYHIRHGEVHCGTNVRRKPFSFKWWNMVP

| SMILES | IC50 |
| --- | --- |
| CN(c1ccc2cc(-c3nc4cc(C(=O)N5CCC[C@@H](N)C5)cc5c4n3CCO5)n(CC3CC3)c2n1)S(C)(=O)=O [Example 89, (R)-N-(2-(7-(3-aminopiperidine-1-carbonyl)-3,4-dihydro-5-oxa-1,2a-diazaacenaphthylen-2-yl)-1-(cyclopropylmethyl)-1H-pyrrolo[2,3-b]pyridin-6-yl)-N-methylmethanesulfonamide] | 812 nM |
| CN(c1ccc2cc(-c3nc4cc(C(=O)N5[C@H]6CC[C@@H]5[C@H](N)C6)cc5c4n3CCO5)n(CC3CC3)c2n1)S(C)(=O)=O [Example 90, N-(2-(7-((1R,2R,4S)-2-amino-7-azabicyclo[2.2.1]heptane-7-carbonyl)-3,4-dihydro-5-oxa-1,2a-diazaacenaphthylen-2-yl)-1-(cyclopropylmethyl)-1H-pyrrolo [2,3-b]pyridin-6-yl)-N-methylmethanesulfonamide] | 214 nM |
| C[C@H](CN)NC(=O)c1cc2nc(-c3cc4ccc(N(C(F)F)S(C)(=O)=O)nc4n3CC3CC3)n(C)c2cc1F [Example 94, (R)-N-(1-aminopropan-2-yl)-2-(1-(cyclopropylmethyl)-6-((N-(difluoromethyl)methyl)sulfonamido)-1H-pyrrolo[2,3-b]pyridin-2-yl)-6-fluoro-1-methyl-1H-benzo[d]imidazole-5-carboxamide] | 26400 nM |
| COc1cc(C(=O)N2CCC[C@@H](N)[C@H]2C)cc2nc(-c3cc4ccc(N=S(C)(C)=O)nc4n3CC3CC3)n(C)c12 [Example 95, ((2-(5-((2R,3R)-3-amino-2-methylpiperidine-1-carbonyl)-7-methoxy-1-methyl-1H-benzo[d]imidazol-2-yl)-1-(cyclopropylmethyl)-1H-pyrrolo [2,3-b]pyridin-6-yl)imino)dimethyl-16-sulfanone] | 1570 nM |
| COc1cc(C(=O)N2CCC[C@@H](N)C2)cc2nc(-c3cc4ccc(N5CCCS5(=O)=O)nc4n3CC3CC3)n(C)c12 [Example 96, (R)-(3-aminopiperidin-1-yl)(2-(1-(cyclopropylmethyl)-6-(1,1-dioxidoisothiazolidin-2-yl)-1H-pyrrolo[2,3-b]pyridin-2-yl)-7-methoxy-1-methyl-1H-benzo[d]imidazol-5-yl) methanone] | 1050 nM |
| COc1cc(C(=O)N2CCC[C@@H](N)C2)cc2nc(-c3cc4ccc(N5CCCCS5(=O)=O)nc4n3CC3CC3)n(C)c12 [Example 97, (R)-(3-aminopiperidin-1-yl) (2-(1-(cyclopropylmethyl)-6-(1,1-dioxido-1,2-thiazinan-2-yl)-1H-pyrrolo[2,3-b]pyridin-2-yl)-7-methoxy-1-methyl-1H-benzo[d]imidazol-5-yl)methanone] | 159 nM |
| C[C@H]1CCCS(=O)(=O)N1c1ccc2cc(-c3nc4cc(C(=O)N5[C@H]6CC[C@@H]5[C@H](N)C6)ccc4n3C3CC3)n(CC3CC3)c2n1 [Example 98, ((1R,2R,4S)-2-amino-7-azabicyclo[2.2.1]heptan-7-yl) (1-cyclopropyl-2-(1-(cyclopropylmethyl)-6-((S)-3-methyl-1,1-dioxido-1,2-thiazinan-2-yl)-1H-pyrrolo[2,3-b]pyridin-2-yl)-1H-benzo[d]imidazol-5-yl)methanone] | 18.9 nM |
| C[C@H]1CCCS(=O)(=O)N1c1ccc2cc(-c3nc4cc(C(=O)N5CCC[C@@H](N)C5)ccc4n3C3CC3)n(CC3CC3)c2n1 [Example 99, ((R)-3-aminopiperidin-1-yl)(1-cyclopropyl-2-(1-(cyclopropylmethyl)-6-((S)-3-methyl-1,1-dioxido-1,2-thiazinan-2-yl)-1H-pyrrolo[2,3-b]pyridin-2-yl)-1H-benzo[d]imidazol-5-yl) methanone] | 28.4 nM |
| C[C@H]1CCCS(=O)(=O)N1c1ccc2cc(-c3nc4cc(C(=O)N5C[C@H]6CC[C@@H]5[C@@H]6N)ccc4n3C3CC3)n(CC3CC3)c2n1 [Example 100, ((1R,4R,7R)-7-amino-2-azabicyclo[2.2.1]heptan-2-yl) (1-cyclopropyl-2-(1-(cyclopropylmethyl)-6-((S)-3-methyl-1,1-dioxido-1,2-thiazinan-2-yl)-1H-pyrrolo[2,3-b]pyridin-2-yl)-1H-benzo[d]imidazol-5-yl)methanone] | 55.5 nM |
| COc1cc(C(=O)N2CCC[C@@H](N)C2)cc2nc(-c3cc4ccc(N5[C@@H](C)CCCS5(=O)=O)nc4n3CC3CC3)n(C3CC3)c12 [Example 101, ((R)-3-aminopiperidin-1-yl)(1-cyclopropyl-2-(1-(cyclopropylmethyl)-6-((S)-3-methyl-1,1-dioxido-1,2-thiazinan-2-yl)-1H-pyrrolo[2,3-b]pyridin-2-yl)-7-methoxy-1H-benzo[d]imidazol-5-yl)methanone] | 43.4 nM |
| COc1cc(C(=O)N2[C@H]3CC[C@@H]2[C@H](N)C3)cc2nc(-c3cc4ccc(N5[C@@H](C)CCCS5(=O)=O)nc4n3CC3CC3)n(C3CC3)c12 [Example 102, ((1R,2R,4S)-2-amino-7-azabicyclo[2.2.1]heptan-7-yl)(1-cyclopropyl-2-(1-(cyclopropylmethyl)-6-((S)-3-methyl-1,1-dioxido-1,2-thiazinan-2-yl)-1H-pyrrolo[2,3-b]pyridin-2-yl)-7-methoxy-1H-benzo[d]imidazol-5-yl)methanone] | 42 nM |
| COc1cc(C(=O)N2[C@H]3CC[C@@H]2[C@H](N)C3)cc2nc(-c3cc4ccc(N5[C@@H](C)CCCS5(=O)=O)nc4n3CC3CC3)n(C)c12 [Example 103, ((1R,2R,4S)-2-amino-7-azabicyclo[2.2.1]heptan-7-yl) (2-(1-(cyclopropylmethyl)-6-((S)-3-methyl-1,1-dioxido-1,2-thiazinan-2-yl)-1H-pyrrolo[2,3-b]pyridin-2-yl)-7-methoxy-1-methyl-1H-benzo[d]imidazol-5-yl) methanone] | 22.3 nM |
| COc1cc(C(=O)N2C[C@H]3CC[C@@H]2[C@@H]3N)cc2nc(-c3cc4ccc(N5[C@@H](C)CCCS5(=O)=O)nc4n3CC3CC3)n(C)c12 [Example 104, ((1R,4R,7R)-7-amino-2-azabicyclo[2.2.1]heptan-2-yl) (2-(1-(cyclopropylmethyl)-6-((S)-3-methyl-1,1-dioxido-1,2-thiazinan-2-yl)-1H-pyrrolo[2,3-b]pyridin-2-yl)-7-methoxy-1-methyl-1H-benzo[d]imidazol-5-yl) methanone] | 79.3 nM |
| COc1cc(C(=O)N2CCC[C@@H](N)C2)cc2nc(-c3cc4ccc(N5[C@@H](C)CCCS5(=O)=O)nc4n3CC3CC3)n(C)c12 [Example 105, ((R)-3-aminopiperidin-1-yl)(2-(1-(cyclopropylmethyl)-6-((S)-3-methyl-1,1-dioxido-1,2-thiazinan-2-yl)-1H-pyrrolo[2,3-b]pyridin-2-yl)-7-methoxy-1-methyl-1H-benzo[d]imidazol-5-yl) methanone] | 29.6 nM |
| COc1cc(C(=O)N2CCC[C@@H](N)C2)cc2nc(-c3cc4ccc(N5CCCN(C)S5(=O)=O)nc4n3CC3CC3)n(C)c12 [Example 106, (R)-(3-aminopiperidin-1-yl)(2-(1-(cyclopropylmethyl)-6-(6-methyl-1,1-dioxido-1,2,6-thiadiazinan-2-yl)-1H-pyrrolo[2,3-b]pyridin-2-yl)-7-methoxy-1-methyl-1H-benzo[d]imidazol-5-yl)methanone] | 434 nM |
| COc1cc(C(=O)N2CCC[C@@H](N)C2)cc2nc(-c3cc4ccc(N5CCCNS5(=O)=O)nc4n3CC3CC3)n(C)c12 [Example 107, (R)-(3-aminopiperidin-1-yl)(2-(1-(cyclopropylmethyl)-6-(1,1-dioxido-1,2,6-thiadiazinan-2-yl)-1H-pyrrolo[2,3-b]pyridin-2-yl)-7-methoxy-1-methyl-1H-benzo[d]imidazol-5-yl) methanone] | 538 nM |
| COC(=O)Nc1ccc2cc(-c3nc4cc(C(=O)N5CCC[C@@H](N)C5)cc(OC)c4n3C)n(CC3CC3)c2n1 [Example 108, (R)-methyl (2-(5-(3-aminopiperidine-1-carbonyl)-7-methoxy-1-methyl-1H-benzo[d]imidazol-2-yl)-1-(cyclopropylmethyl)-1H-pyrrolo[2,3-b]pyridin-6-yl)carbamate] | 5760 nM |
| COC(=O)N(C)c1ccc2cc(-c3nc4cc(C(=O)N5CCC[C@@H](N)C5)cc(OC)c4n3C)n(CC3CC3)c2n1 [Example 109, (R)-methyl (2-(5-(3-aminopiperidine-1-carbonyl)-7-methoxy-1-methyl-1H-benzo[d]imidazol-2-yl)-1-(cyclopropylmethyl)-1H-pyrrolo[2,3-b]pyridin-6-yl) (methyl)carbamate] | 401 nM |
| COC(=O)N(c1ccc2cc(-c3nc4cc(C(=O)N5CCC[C@@H](N)C5)cc(OC)c4n3C)n(CC3CC3)c2n1)C1CCC1 [Example 110, (R)-methyl (2-(5-(3-aminopiperidine-1-carbonyl)-7-methoxy-1-methyl-1H-benzo[d]imidazol-2-yl)-1-(cyclopropylmethyl)-1H-pyrrolo[2,3-b]pyridin-6-yl) (cyclobutyl)carbamate] | 509 nM |
| CCN(C(=O)OC)c1ccc2cc(-c3nc4cc(C(=O)N5CCC[C@@H](N)C5)cc(OC)c4n3C)n(CC3CC3)c2n1 [Example 111, (R)-methyl (2-(5-(3-aminopiperidine-1-carbonyl)-7-methoxy-1-methyl-1H-benzo[b]imidazol-2-yl)-1-(cyclopropylmethyl)-1H-pyrrolo [2,3-b]pyridin-6-yl) (ethyl)carbamate] | 234 nM |
| CCN(C(=O)OC)c1ccc2cc(-c3nc4cc(C(=O)N5CCC[C@@H](N)C5)ccc4n3C3CC3)n(CC3CC3)c2n1 [Example 112, (R)-methyl (2-(5-(3-aminopiperidine-1-carbonyl)-1-cyclopropyl-1H-benzo[d]imidazol-2-yl)-1-(cyclopropylmethyl)-1H-pyrrolo [2,3-b]pyridin-6-yl) (ethyl)carbamate] | 5150 nM |
| CCN(C(=O)OC)c1ccc2cc(-c3nc4cc(C(=O)N5CCC[C@@H](N)C5)ccc4n3C3CC3)n(CC3CC3)c2n1 [Example 113, (R)-methyl (2-(5-(3-aminopiperidine-1-carbonyl)-1-cyclopropyl-1H-benzo[d]imidazol-2-yl)-1-(cyclopropylmethyl)-1H-pyrrolo[2,3-b]pyridin-6-yl)(ethyl)carbamate] | 196 nM |
